# Measurements published in patent US9376454B2, “Beta-lactamase inhibitors” (priority 2013, dated 2016).
# Columns and labels:
# Type in all cases: biochemical
# SHV-5 β-lactamase = target: T1, SHV-5 β-lactamase (Klebsiella pneumoniae, UniProt P0A3M1); assay: β-Lactamase inhibition enzyme assay, SHV-5
# T1 construct: made in house; host or cells: E. coli BL21(DE3)
# Experimental: (§1) For SHV-5, Kpc-2, p99AmpC and OXA-1 β-lactamases, E. coli BL21(DE3) bacterial cells carrying expression plasmids (expressed as native untagged proteins) for the individual β-lactamases were grown in 1 L of Superbroth (Teknova Inc. Hollister, Calif.) supplemented with 100 μg/ml kanamycin selection and 1×5052 (0.5% glycerol, 0.05% glucose and 0.2% α-lactose) at 35° C. for 18-20 hours. Cells were harvested by centrifugation (4,000×g, 4° C., 20 min), resuspended in 50 ml of 10 mM HEPES pH 7.5 ( 1/20 of the initial volume). The cells were lysed by sonication (5 pulses of 45 seconds) at 45 W on ice. The lysates were clarified by centrifugation at 10,000×g for 40 minutes at 4° C. Samples were diluted 5-fold in 50 mM sodium acetate pH 5.0, stored overnight at 4° C., after which they were centrifuged at 10,000×g for 30 minutes to clarify, and filtered through 0.45 μm filters. The samples were loaded onto a 5 ml Capto S sepharose cation exchange column (GE Healthcare) pre-equilibrated with 50 mM sodium acetate pH 5.0. The column was washed with 5 column volumes of 50 mM sodium acetate pH 5.0 to wash out unbound protein and a linear gradient of NaCl (0 to 500 mM) was used to elute the protein (over 16 CV) from the column. Fractions were assayed for β-lactamase activity using Centa (Calbiochem, Gibbstown, N.J.) or Nitrocefin (EMD Millipore chemicals, Darmstadt, Germany) as a reporter β-lactamase substrate for activity in the isolated fractions. Active fractions were pooled, concentrated and further purified by gel filtration chromatography on a Superdex 75 prep grade gel filtration column (GE Healthcare, Piscataway, N.J.) pre-equilibrated in 50 mM Hepes pH 7.5, 150 mM NaCl. Active fractions were pooled concentrated, quantitated by BCA protein determination (Thermo Scientific, Rockford, Ill.), dialyzed into PBS and frozen at −80° C. in 20% glycerol until use.
# (§2) An equal volume of diluted enzyme stock was added, and the plates were incubated at 37° C. for 15 min. Nitrocefin was used as substrate for p99 AmpC, VIM-2 and OXA-1 and dispensed into each well at a final concentration of 100 μM. Absorbance at 486 nm was immediately monitored for 10 min using a Biotek Powerwave XS2 microplate spectrophotometer using the GEN5 softweare package (Biotek Instruments, Winooski Vt.). In an analogous fashion, imipenem was used as substrate for Kpc-2 and Cefotaxime was used for SHV-5, while changes in absorbance upon hydrolysis of the β-lactam ring were monitored at 300 nm and 260 nm respectively in UV-transparent 96-well microtiter assay plates. Maximum rates of hydrolysis were compared to those in control wells (without inhibitors), and percentages of enzyme inhibition were calculated for each concentration of inhibitor. The concentration of inhibitor needed to reduce the initial rate of hydrolysis of substrate by 50% (IC50) was calculated as the residual activity of β-lactamase at 486 nm using GraFit version 7 kinetics software package (Erithacus Software, Surrey, UK).
# KPC-2 β-lactamase = target: T2, KPC-2 β-lactamase (Klebsiella pneumoniae, UniProt Q9F663); assay: β-Lactamase inhibition enzyme assay, KPC-2; settings: imipenem as substrate, 300 nm; 15 min at 37° C. with enzyme, PBS pH 7.4; read-out: Class A KPC-2 IC50
# T2 construct: made in house; host or cells: E. coli BL21(DE3)
# Experimental: as §1, §2
# [1] = target: T3, VIM-2 metallo β-lactamase (Pseudomonas aeruginosa, UniProt Q9K2N0); assay: β-Lactamase inhibition enzyme assay, VIM-2; settings: Nitrocefin 100 μM as substrate, 486 nm; 15 min at 37° C. with enzyme, PBS pH 7.4; read-out: Class B VIM-2 IC50
# T3 construct: made in house; host or cells: E. coli BL21(DE3)
# Experimental: as §1
# For Vim-2 metallo β-lactamase, the procedure was identical with the following exceptions, first the protein was not pH adjusted to pH 5 with 50 mM sodium acetate, second, the chromatography step was changed to a 5 ml Q sepharose anion exchange column pre-equilibrated with 50 mM Hepes pH 7.5, and elution of the protein was achieved by a linear gradient of NaCl (0-600 mM). Finally, the VIM-2 purification required a second run (3rd step) on the Q sepharose anion exchange column to achieve acceptable purity (>90%).
# as §2
# p99 AmpC β-lactamase = target: T4, p99 AmpC β-lactamase (Enterobacter cloacae, UniProt P05364); assay: β-Lactamase inhibition enzyme assay, p99 AmpC
# T4 construct: made in house; host or cells: E. coli BL21(DE3)
# Experimental: as §1, §2
# OXA-1 β-lactamase = target: T5, OXA-1 β-lactamase (Escherichia coli, UniProt P13661); assay: β-Lactamase inhibition enzyme assay, OXA-1; settings: Nitrocefin 100 μM as substrate, 486 nm; 15 min at 37° C. with enzyme, PBS pH 7.4; read-out: Class D OXA-1 IC50
# T5 construct: made in house; host or cells: E. coli BL21(DE3)
# Experimental: as §1, §2
# T5 sequence (P13661 26-276): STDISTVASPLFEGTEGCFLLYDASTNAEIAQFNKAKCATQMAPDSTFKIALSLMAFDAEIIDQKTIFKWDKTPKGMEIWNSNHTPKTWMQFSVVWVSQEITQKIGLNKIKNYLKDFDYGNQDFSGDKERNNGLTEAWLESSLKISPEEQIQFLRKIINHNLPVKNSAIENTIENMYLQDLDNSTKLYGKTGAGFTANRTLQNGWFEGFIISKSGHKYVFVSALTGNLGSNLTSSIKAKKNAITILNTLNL
# T2 sequence (Q9F663 25-293, looked up): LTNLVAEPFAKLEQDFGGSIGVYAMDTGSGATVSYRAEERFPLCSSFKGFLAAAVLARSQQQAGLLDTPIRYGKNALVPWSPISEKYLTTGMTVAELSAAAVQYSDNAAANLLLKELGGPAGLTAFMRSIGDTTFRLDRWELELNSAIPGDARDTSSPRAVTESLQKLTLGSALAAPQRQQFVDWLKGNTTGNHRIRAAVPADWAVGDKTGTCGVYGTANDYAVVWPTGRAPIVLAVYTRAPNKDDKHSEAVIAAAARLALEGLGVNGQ
# T4 sequence (P05364 21-381): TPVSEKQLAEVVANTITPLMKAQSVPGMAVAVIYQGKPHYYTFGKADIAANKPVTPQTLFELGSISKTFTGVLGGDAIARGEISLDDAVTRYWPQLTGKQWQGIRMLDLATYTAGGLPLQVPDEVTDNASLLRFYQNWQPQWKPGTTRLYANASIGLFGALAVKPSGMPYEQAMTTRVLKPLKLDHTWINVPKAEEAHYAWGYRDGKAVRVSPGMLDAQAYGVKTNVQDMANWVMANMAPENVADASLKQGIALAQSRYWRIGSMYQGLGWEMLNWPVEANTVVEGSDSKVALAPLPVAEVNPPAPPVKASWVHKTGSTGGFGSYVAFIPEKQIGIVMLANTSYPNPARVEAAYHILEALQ
# T1 sequence (P0A3M1 22-286): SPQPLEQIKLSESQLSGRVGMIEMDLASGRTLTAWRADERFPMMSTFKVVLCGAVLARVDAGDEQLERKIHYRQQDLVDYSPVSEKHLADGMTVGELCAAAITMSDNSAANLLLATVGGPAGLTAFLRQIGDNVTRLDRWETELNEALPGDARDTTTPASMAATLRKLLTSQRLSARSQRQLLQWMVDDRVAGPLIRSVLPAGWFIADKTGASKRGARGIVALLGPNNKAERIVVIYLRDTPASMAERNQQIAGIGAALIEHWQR
compound,measurement,setting,value
"CNCc1ccc(C(=O)N[C@H]2Cc3cccc(C(=O)O)c3OB2O)cc1CNC [Example 19, (R)-3-(3,4-bis((methylamino)methyl)benzamido)-2-hydroxy-3,4-dihydro-2H-benzo[e][1,2]oxaborinine-8-carboxylic acid]",IC50,SHV-5 β-lactamase,< 100 nM
same,IC50,KPC-2 β-lactamase,< 100 nM
same,IC50,[1],< 100 nM
same,IC50,p99 AmpC β-lactamase,< 100 nM
same,IC50,OXA-1 β-lactamase,< 100 nM
"CN1Cc2ccc(CC(=O)N[C@H]3Cc4cccc(C(=O)O)c4OB3O)cc2C1 [Example 48, (R)-2-Hydroxy-3-[2-(2-methyl-2,3-dihydro-1H-isoindol-5-yl)-acetylamino]-3,4-dihydro-2H-benzo[e][1,2]oxaborinine-8-carboxylic acid]",IC50,SHV-5 β-lactamase,< 100 nM
same,IC50,KPC-2 β-lactamase,< 100 nM
same,IC50,[1],< 100 nM
same,IC50,p99 AmpC β-lactamase,< 100 nM
same,IC50,OXA-1 β-lactamase,< 100 nM
"O=C(N[C@H]1Cc2cccc(C(=O)O)c2OB1O)c1ccc(-c2ncc[nH]2)cc1 [Example 47, (R)-2-Hydroxy-3-[4-(1H-imidazol-2-yl)-benzoylamino]-3,4-dihydro-2H-benzo[e][1,2]oxaborinine-8-carboxylic acid]",IC50,SHV-5 β-lactamase,< 100 nM
same,IC50,KPC-2 β-lactamase,< 100 nM
same,IC50,[1],100 to 1000 nM
same,IC50,p99 AmpC β-lactamase,< 100 nM
same,IC50,OXA-1 β-lactamase,< 100 nM
"O=C1Cc2cc(C(=O)N[C@H]3Cc4cccc(C(=O)O)c4OB3O)ccc2N1 [Example 33, (R)-2-Hydroxy-3-[(2-oxo-2,3-dihydro-1H-indole-5-carbonyl)-amino]-3,4-dihydro-2H-benzo[e][1,2]oxaborinine-8-carboxylic acid]",IC50,SHV-5 β-lactamase,< 100 nM
same,IC50,KPC-2 β-lactamase,< 100 nM
same,IC50,[1],100 to 1000 nM
same,IC50,p99 AmpC β-lactamase,< 100 nM
same,IC50,OXA-1 β-lactamase,< 100 nM
"NCCOc1ccc(CC(=O)N[C@H]2Cc3cccc(C(=O)O)c3OB2O)cc1OCCN [Example 58, (R)-3-(2-(3,4-bis(2-aminoethoxy)phenyl)acetamido)-2-hydroxy-3,4-dihydro-2H-benzo[e][1,2]oxaborinine-8-carboxylic acid]",IC50,SHV-5 β-lactamase,< 100 nM
same,IC50,KPC-2 β-lactamase,< 100 nM
same,IC50,[1],100 to 1000 nM
same,IC50,p99 AmpC β-lactamase,< 100 nM
same,IC50,OXA-1 β-lactamase,< 100 nM
"NCCN1Cc2ccc(CC(=O)N[C@H]3Cc4cccc(C(=O)O)c4OB3O)cc2C1 [Example 49, (R)-3-{2-[2-(2-Amino-ethyl)-2,3-dihydro-1H-isoindol-5-yl]-acetylamino}-2-hydroxy-3,4-dihydro-2H-benzo[e][1,2]oxaborinine-8-carboxylic acid]",IC50,SHV-5 β-lactamase,< 100 nM
same,IC50,KPC-2 β-lactamase,< 100 nM
same,IC50,[1],100 to 1000 nM
same,IC50,p99 AmpC β-lactamase,< 100 nM
same,IC50,OXA-1 β-lactamase,< 100 nM
"O=C(N[C@H]1Cc2cccc(C(=O)O)c2OB1O)c1ccc2nccnc2c1 [Example 29, (R)-2-hydroxy-3-(quinoxaline-6-carboxamido)-3,4-dihydro-2H-benzo[e][1,2]oxaborinine-8-carboxylic acid]",IC50,SHV-5 β-lactamase,< 100 nM
same,IC50,KPC-2 β-lactamase,< 100 nM
same,IC50,[1],1000 to 10000 nM
same,IC50,p99 AmpC β-lactamase,< 100 nM
same,IC50,OXA-1 β-lactamase,< 100 nM
"O=C(N[C@H]1Cc2cccc(C(=O)O)c2OB1O)c1csc2c1CCNC2 [Example 4, (R)-2-hydroxy-3-(4,5,6,7-tetrahydrothieno[2,3-c]pyridine-3-carboxamido)-3,4-dihydro-2H-benzo[e][1,2]oxaborinine-8-carboxylic acid]",IC50,SHV-5 β-lactamase,< 100 nM
same,IC50,KPC-2 β-lactamase,< 100 nM
same,IC50,[1],100 to 1000 nM
same,IC50,p99 AmpC β-lactamase,< 100 nM
same,IC50,OXA-1 β-lactamase,< 100 nM
"Cc1ccc(C(=O)N[C@H]2Cc3cccc(C(=O)O)c3OB2O)cc1NC(=O)[C@@H](N)CN [Example 22, (R)-3-(3-((S)-2,3-diaminopropanamido)-4-methylbenzamido)-2-hydroxy-3,4-dihydro-2H-benzo[e][1,2]oxaborinine-8-carboxylic acid]",IC50,SHV-5 β-lactamase,1000 to 10000 nM
same,IC50,KPC-2 β-lactamase,100 to 1000 nM
same,IC50,[1],100 to 1000 nM
same,IC50,p99 AmpC β-lactamase,< 100 nM
same,IC50,OXA-1 β-lactamase,< 100 nM
"O=C(N[C@H]1Cc2cccc(C(=O)O)c2OB1O)c1ccc(O)c(O)c1 [Example 39, (R)-3-(3,4-dihydroxybenzamido)-2-hydroxy-3,4-dihydro-2H-benzo[e][1,2]oxaborinine-8-carboxylic acid]",IC50,SHV-5 β-lactamase,100 to 1000 nM
same,IC50,KPC-2 β-lactamase,< 100 nM
same,IC50,[1],100 to 1000 nM
same,IC50,p99 AmpC β-lactamase,< 100 nM
same,IC50,OXA-1 β-lactamase,< 100 nM
"NCCNc1ccc(CC(=O)N[C@H]2Cc3cccc(C(=O)O)c3OB2O)c[n+]1[O-] [Example 61, (R)-2-(2-aminoethylamino)-5-(2-(8-carboxy-2-hydroxy-3,4-dihydro-2H-benzo[e][1,2]oxaborinin-3-ylamino)-2-oxoethyl)pyridine 1-oxide]",IC50,SHV-5 β-lactamase,< 100 nM
same,IC50,KPC-2 β-lactamase,< 100 nM
same,IC50,[1],100 to 1000 nM
same,IC50,p99 AmpC β-lactamase,< 100 nM
same,IC50,OXA-1 β-lactamase,< 100 nM
"NCCN1Cc2ccc(C(=O)N[C@H]3Cc4cccc(C(=O)O)c4OB3O)cc2C1 [Example 11, (R)-3-(2-(2-aminoethyl)isoindoline-5-carboxamido)-2-hydroxy-3,4-dihydro-2H-benzo[e][1,2]oxaborinine-8-carboxylic acid]",IC50,SHV-5 β-lactamase,< 100 nM
same,IC50,KPC-2 β-lactamase,< 100 nM
same,IC50,[1],100 to 1000 nM
same,IC50,p99 AmpC β-lactamase,< 100 nM
same,IC50,OXA-1 β-lactamase,< 100 nM
"NCCOc1ccc(CC(=O)N[C@H]2Cc3cccc(C(=O)O)c3OB2O)cc1O [Example 59, (R)-3-(2-(4-(2-aminoethoxy)-3-hydroxyphenyl)acetamido)-2-hydroxy-3,4-dihydro-2H-benzo[e][1,2]oxaborinine-8-carboxylic acid]",IC50,SHV-5 β-lactamase,< 100 nM
same,IC50,KPC-2 β-lactamase,< 100 nM
same,IC50,[1],100 to 1000 nM
same,IC50,p99 AmpC β-lactamase,< 100 nM
same,IC50,OXA-1 β-lactamase,< 100 nM
"O=C(N[C@H]1Cc2cccc(C(=O)O)c2OB1O)c1ccc2c(c1)CCNC2 [Example 5, (R)-3-(2-borono-2-(1,2,3,4-tetrahydroisoquinoline-6-carboxamido)ethyl)-2-hydroxybenzoic acid]",IC50,SHV-5 β-lactamase,< 100 nM
same,IC50,KPC-2 β-lactamase,< 100 nM
same,IC50,[1],100 to 1000 nM
same,IC50,p99 AmpC β-lactamase,< 100 nM
same,IC50,OXA-1 β-lactamase,< 100 nM
"CC(C)NCc1cc(C(=O)N[C@H]2Cc3cccc(C(=O)O)c3OB2O)ccc1CN [Example 55, (R)-3-(4-(aminomethyl)-3-((isopropylamino)methyl)benzamido)-2-hydroxy-3,4-dihydro-2H-benzo[e][1,2]oxaborinine-8-carboxylic acid]",IC50,SHV-5 β-lactamase,100 to 1000 nM
same,IC50,KPC-2 β-lactamase,1000 to 10000 nM
same,IC50,[1],100 to 1000 nM
same,IC50,p99 AmpC β-lactamase,100 to 1000 nM
same,IC50,OXA-1 β-lactamase,100 to 1000 nM
"NCCn1ccc2ccc(C(=O)N[C@H]3Cc4cccc(C(=O)O)c4OB3O)cc21 [Example 41, (R)-3-{[1-(2-Amino-ethyl)-1H-indole-6-carbonyl]-amino}-2-hydroxy-3,4-dihydro-2H-benzo[e][1,2]oxaborinine-8-carboxylic acid]",IC50,SHV-5 β-lactamase,< 100 nM
same,IC50,KPC-2 β-lactamase,< 100 nM
same,IC50,[1],< 100 nM
same,IC50,p99 AmpC β-lactamase,< 100 nM
same,IC50,OXA-1 β-lactamase,< 100 nM
"CN1Cc2ccc(C(=O)N[C@H]3Cc4cccc(C(=O)O)c4OB3O)cc2C1 [Example 10, (R)-2-hydroxy-3-(2-methylisoindoline-5-carboxamido)-3,4-dihydro-2H-benzo[e][1,2]oxaborinine-8-carboxylic acid]",IC50,SHV-5 β-lactamase,< 100 nM
same,IC50,KPC-2 β-lactamase,< 100 nM
same,IC50,[1],< 100 nM
same,IC50,p99 AmpC β-lactamase,< 100 nM
same,IC50,OXA-1 β-lactamase,< 100 nM
"NCCNc1ccc(CC(=O)N[C@H]2Cc3cccc(C(=O)O)c3OB2O)cc1 [Example 57, (R)-3-(2-(4-(2-aminoethylamino)phenyl)acetamido)-2-hydroxy-3,4-dihydro-2H-benzo[e][1,2]oxaborinine-8-carboxylic acid]",IC50,SHV-5 β-lactamase,< 100 nM
same,IC50,KPC-2 β-lactamase,< 100 nM
same,IC50,[1],1000 to 10000 nM
same,IC50,p99 AmpC β-lactamase,< 100 nM
same,IC50,OXA-1 β-lactamase,< 100 nM
